Where a name gives a salt, the structure may show the parent alone.
Assay: in vitro
Settings: PAMPA, PAMPA-BBB Pe(10^-6 cm/sec)

SMILES	Papp
CC[C@H](C)C(=O)O[C@H]1C[C@H](O)C=C2C=C[C@H](C)[C@H](CC[C@@H](O)C[C@@H](O)CC(=O)O)[C@H]21 [PRAVASTATIN SODIUM]	< 1 ×10⁻⁶ cm/s
COc1ccc(C[C@H](N)C(=O)N[C@@H]2[C@@H](CO)OC(n3cnc4c(N(C)C)ncnc43)[C@@H]2O)cc1 (some centres unmarked) [PUROMYCIN MONOHYDROCHLORIDE]	< 1 ×10⁻⁶ cm/s
CNCC(O)c1ccc(O)c(O)c1 (centres unmarked) [RACEPINEPHRINE HYDROCHLORIDE]	< 1 ×10⁻⁶ cm/s
Cc1cc2nc3c(=O)[nH]c(=O)nc-3n(C[C@H](O)[C@H](O)[C@H](O)CO)c2cc1C [RIBOFLAVIN]	< 1 ×10⁻⁶ cm/s
CO[C@H]1/C=C/O[C@@]2(C)Oc3c(C)c(O)c4c(O)c(c(/C=N/N5CCN(C)CC5)c(O)c4c3C2=O)NC(=O)/C(C)=C\C=C\[C@H](C)[C@H](O)[C@@H](C)[C@@H](O)[C@@H](C)[C@H](OC(C)=O)[C@@H]1C [Rifampicin]	3.7 ×10⁻⁶ cm/s

Same assay, conditions: PAMPA, PAMPA-BBB Pe(10^-6 cm/sec), Table S3: compounds exhibiting low PAMPA-BBB permeability

SMILES	Papp
C[C@@H]1O[C@@H](O[C@@H]2C=C3CC[C@@H]4[C@H](CC[C@]5(C)[C@@H](c6ccc(=O)oc6)CC[C@]45O)[C@@]3(C)CC2)[C@H](O)[C@H](O)[C@H]1O [PROSCILLARIDIN]	1.5 ×10⁻⁶ cm/s
CCCCC[C@H](O)/C=C/C1=C(CCCCCCC(=O)O)C(=O)CC1 [PROSTAGLANDIN B1]	< 1 ×10⁻⁶ cm/s
CC(=O)O[C@@]12C[C@@H](C)[C@@]3(O)[C@@H](C=C(CO)C[C@]4(O)C(=O)C(C)=C[C@@H]34)[C@@H]1C2(C)C [PROSTRATIN]	< 1 ×10⁻⁶ cm/s
O=C(O)c1ccc(O)c(O)c1 [PROT[…]]	< 1 ×10⁻⁶ cm/s
O=c1c(-c2ccc(O)cc2)coc2c([C@@H]3O[C@H](CO)[C@@H](O)[C@H](O)[C@H]3O)c(O)ccc12 [PUERARIN]	< 1 ×10⁻⁶ cm/s
O=C(O)c1cccc(O)c1O [PYR[…]]	< 1 ×10⁻⁶ cm/s
COc1ccc2[nH]c3c(c2c1)CCNC3 [Pinoline]	2.5 ×10⁻⁶ cm/s
O=c1c(O)c(-c2ccc(O)c(O)c2)oc2cc(O)cc(O)c12 [QUERCETIN]	< 1 ×10⁻⁶ cm/s
C[C@H]1O[C@@H](Oc2c(-c3ccc(O)c(O)c3)oc3cc(O)cc(O)c3c2=O)[C@H](O)[C@H](O)[C@H]1O [QUERCITROSIDE]	< 1 ×10⁻⁶ cm/s
O=C(O)[C@H]1O[C@@H](Oc2c(-c3ccc(O)c(O)c3)oc3cc(O)cc(O)c3c2=O)[C@H](O)[C@@H](O)[C@@H]1O [QUERCITURONE]	4.2 ×10⁻⁶ cm/s
O=C(O)c1cccnc1C(=O)O [QUINOLINIC ACID]	< 1 ×10⁻⁶ cm/s
CC(=O)CCc1ccc(O)cc1 [RASPBERRY KETONE]	4.1 ×10⁻⁶ cm/s
Oc1ccc(/C=C/c2cc(O)cc(O)c2)cc1 [RESVERATROL]	1.8 ×10⁻⁶ cm/s
C[C@@H]1O[C@@H](O[C@H]2[C@H](Oc3cc(O)c4c(=O)cc(-c5ccc(O)cc5)oc4c3)O[C@H](CO)[C@@H](O)[C@@H]2O)[C@H](O)[C@H](O)[C@H]1O [RHOIFOLIN]	< 1 ×10⁻⁶ cm/s
CC[C@H]1CN2CC[C@]3(C(=O)Nc4ccccc43)[C@@H]2C[C@@H]1/C(=C\OC)C(=O)OC [RHYNCHOPHYLLINE]	6.5 ×10⁻⁶ cm/s
CC(C)=CCNc1ncnc2c1ncn2[C@@H]1O[C@H](CO)[C@@H](O)[C@H]1O [RIBOPRINE]	< 1 ×10⁻⁶ cm/s
CO[C@H]1/C=C/O[C@@]2(C)Oc3c(C)c(O)c4c(O)c(cc(O)c4c3C2=O)NC(=O)/C(C)=C\C=C\[C@H](C)[C@H](O)[C@@H](C)[C@@H](O)[C@@H](C)[C@H](OC(C)=O)[C@@H]1C [RIFAMYCIN]	< 1 ×10⁻⁶ cm/s
CNCC/C=C/c1cccnc1 [RIVANICLINE]	7.1 ×10⁻⁶ cm/s

SMILES	Papp
O=c1c(O)c(-c2cc(O)c(O)c(O)c2)oc2cc(O)ccc12 [ROBINETIN]	1 ×10⁻⁶ cm/s
OC[C@H]1O[C@@H](OC[C@H]2O[C@@H](OC/C=C/c3ccccc3)[C@H](O)[C@@H](O)[C@@H]2O)[C@@H](O)[C@@H]1O [ROSARIN]	< 1 ×10⁻⁶ cm/s
O[C@@H]1[C@@H](O)[C@H](OC/C=C/c2ccccc2)O[C@H](CO[C@@H]2OC[C@H](O)[C@H](O)[C@H]2O)[C@H]1O [ROSAVIN]	< 1 ×10⁻⁶ cm/s
O=C(/C=C/c1ccc(O)c(O)c1)O[C@H](Cc1ccc(O)c(O)c1)C(=O)O [ROSMARINIC ACID]	3.4 ×10⁻⁶ cm/s
C[C@@H]1O[C@@H](OC[C@H]2O[C@@H](Oc3c(-c4ccc(O)c(O)c4)oc4cc(O)cc(O)c4c3=O)[C@H](O)[C@@H](O)[C@@H]2O)[C@H](O)[C@H](O)[C@H]1O [RUTIN]	< 1 ×10⁻⁶ cm/s
CNc1ccccc1C(=O)N1CCc2c([nH]c3ccccc23)C1=O [Rhetsinine]	2.6 ×10⁻⁶ cm/s
C[S+](CC[C@H](N)C(=O)[O-])C[C@H]1O[C@@H](n2cnc3c(N)ncnc32)[C@H](O)[C@@H]1O (some centres unmarked) [S-ADENOSYLMETHIONINE]	< 1 ×10⁻⁶ cm/s
OCC(O)Cc1ccc2c(c1)OCO2 (centres unmarked) [SAFROLGLYCOL]	1.7 ×10⁻⁶ cm/s
O=C(O)c1ccccc1O [SALICYLIC ACID]	1.8 ×10⁻⁶ cm/s
C[C@@H]1NCCc2cc(O)c(O)cc21 [SALSOLINOL]	< 1 ×10⁻⁶ cm/s
C[n+]1cc2c3c(ccc2c2ccc4cc5c(cc4c21)OCO5)OCO3 [SANGUINARIUM CHLORIDE]	< 1 ×10⁻⁶ cm/s
COc1cc(C[C@@H](CO)[C@H](CO)Cc2ccc(O)c(OC)c2)ccc1O [SECOISOLARICIRESINOL]	< 1 ×10⁻⁶ cm/s
O=C(O)c1cc(O)c2c(c1)[C@@H]([C@H]1c3cc(C(=O)O)cc(O)c3C(=O)c3c(O[C@@H]4O[C@H](CO)[C@@H](O)[C@H](O)[C@H]4O)cccc31)c1cccc(O[C@@H]3O[C@H](CO)[C@@H](O)[C@H](O)[C@H]3O)c1C2=O [SENNOSIDE B]	3 ×10⁻⁶ cm/s
C[C@H](O)C(=O)C1=Nc2c(nc(N)[nH]c2=O)NC1 [SEPIAPTERIN]	1.6 ×10⁻⁶ cm/s
NCCc1c[nH]c2ccc(O)cc12 [SEROTONIN HYDROCHLORIDE]	< 1 ×10⁻⁶ cm/s
COC1=C[C@@H]2[C@@H]3Cc4ccc(OC)c(O)c4[C@]2(CCN3C)CC1=O [SINOMENINE]	2.2 ×10⁻⁶ cm/s
CC(C)C1=CC2=CC[C@@H]3[C@](C)(CCC[C@@]3(C)C(=O)O)[C@H]2CC1 [SODIUM ABIETATE]	< 1 ×10⁻⁶ cm/s
CC1=C(O)C(=O)OC1C (centres unmarked) [SOTOLONE]	< 1 ×10⁻⁶ cm/s

Same assay, conditions: PAMPA, PAMPA-BBB Pe, Table S2: compounds exhibiting moderate to high PAMPA-BBB permeability

SMILES	Papp
COc1cc2c(cc1OC)OC(C)(C)C=C2 [PRECOCENE II]	159 ×10⁻⁶ cm/s
C/C=C(\C)C(=O)O[C@@H]1c2c(ccc3ccc(=O)oc23)OC(C)(C)[C@@H]1OC(C)=O [PTERYXINE]	205 ×10⁻⁶ cm/s
Cn1c2cccc(=O)c-2nc2ccccc21 [PYOCYANINE]	299 ×10⁻⁶ cm/s
O=[N+]([O-])c1c(Cl)cccc1-c1c[nH]cc1Cl [PYRROLNITRIN]	159 ×10⁻⁶ cm/s
COC(=O)C1=CO[C@@H](C)[C@H]2CN3CCc4c([nH]c5ccccc45)[C@@H]3C[C@H]12 [RAUBASINE HYDROCHLORIDE]	125 ×10⁻⁶ cm/s
C=C(C)[C@]12C[C@@H](C)[C@@]34O[C@](Cc5ccccc5)(O[C@@H]1[C@@H]3C=C(COC(=O)Cc1ccc(O)c(OC)c1)C[C@]1(O)C(=O)C(C)=C[C@@H]41)O2 [RESINIFERATOXIN]	38 ×10⁻⁶ cm/s
COc1ccc(/C=C/c2cc(O)cc(O)c2)cc1O [RHAPONTIN GENIN]	70 ×10⁻⁶ cm/s
O=c1c2ccccc2nc2n1CCc1c-2[nH]c2ccccc12 [RUTECARPINE]	151 ×10⁻⁶ cm/s
COC1=C[C@]23CCN(C)[C@H](Cc4ccc(OC)c(O)c42)C3=CC1=O [SALUTARIDINE]	11 ×10⁻⁶ cm/s
CC1=C2[C@H]3OC(=O)[C@@H](C)[C@@H]3CC[C@@]2(C)C=CC1=O [SANTONINUM]	49 ×10⁻⁶ cm/s
COc1ccc(-c2cc(=O)c3c(O)cc(O)c(-c4cc(-c5cc(=O)c6c(O)cc(OC)cc6o5)ccc4OC)c3o2)cc1 [SCIADOPITYSIN]	20 ×10⁻⁶ cm/s
COc1ccc(-c2cc(=O)c3c(OC)c(OC)c(OC)cc3o2)cc1OC [SINENSETIN]	36 ×10⁻⁶ cm/s

Reference: article PMC11876671, “Investigating blood–brain barrier penetration and neurotoxicity of natural products for central nervous system drug development” (Scientific Reports, 2025)
